Measured values reported in patent US20240238422A1 (Osprey Biopharmaceuticals, Inc., priority 2021, published 2024).
“Also recorded” adds a separate entry of the source.

Tests used:
[1] = target: Human TNFα (Homo sapiens, UniProt P01375); test: TNFα - Adalimumab/Adalimumab-Siglec Ligand Conjugate SPR Binding Assays; conditions: TNFα analyte, test article on Protein A chip, 1:1 binding model
Description: Binding experiments of Adalimumab Conjugates were performed on a Biacore 8K+ using a Cytiva Protein A Chip Series S (Cat #29127555). Briefly, conjugates were diluted in running buffer (HBS-EP+) and scouted for a concentration yielding about 30 RU of response after 20 seconds of injection at 30 μL/min on the active surface (flow cell 2). Human TNFα was serially diluted in running buffer 1:1 from 100 nM to 0.1953 nM and then injected across both the reference (flow cell 1) and active surface (flow cell 2) for 120 seconds at 30 μL/min and allowed to dissociate for 600 s. […] Sensorgrams were fitted to a 1:1 binding model in Biacore Insight Evaluation Software Version 3.0.11.15423.

[2] = system: C57BL/6 mice; test: Anti-drug antibody (serum IgG titer) response to adalimumab and conjugates in mice; format: in vivo, mouse
Description: To evaluate the production of antibodies specific to adalimumab and/or adalimumab-Siglec Ligand conjugates, C57BL/6 mice were immunized through intravenous injection with adalimumab or Siglec Ligand-conjugated adalimumab. On study day −1, animals were randomized into treatment groups based on body weight. On study day 0, animals were bled for baseline serum and then injected IV with adalimumab or the adalimumab-Siglec Ligand conjugates. The individual antigens were prepared by making a 0.8 mg/ml antigen solution in sterile buffered saline. Animals were then injected with 0.1 ml (^˜4 ml/kg) of the 0.8 mg/ml antigen via the tail vein. The total dose based on a 20 g mouse would be 4 mg/kg. Animals were bled via the retro-orbital sinus weekly throughout the study under inhaled isoflurane anesthesia. On study day, 28 animals were anesthetized with inhaled isoflurane anesthesia and then bled via cardiac puncture and then sacrificed by cervical dislocation. […]
ADA assays were performed on 96-well assay plates (Nunc Plates, Black 96-Well Immuno Plates, Thermo Scientific, 437111) coated with antigen, as follows. […] The excitation and emission settings for the QuantaBlu Fluorogenic Peroxide Substrates are 325 nm and 420 nm and the relative florescence units were measured using a SpectraMax plate reader. […] Titers were determined by the dilution of serum that gives a 2× OD above background. […]

[3] = system: C57BL/6 mice; test: Serum IgG response to hen egg white lysozyme (HEL) in mice; format: in vivo, mouse; conditions: Example 20: 4 weekly 200 μg i.v. doses (days 0, 7, 14, and 21), day 27
Description: On study day −1, animals were randomized into treatment groups based on body weight. On study day 0, animals were bled for baseline serum and then injected IV with adalimumab, adalimumab-Siglec Ligand conjugate, or PBS vehicle. The individual adalimumab-based antigens were prepared by making a 0.8 mg/ml antigen solution in sterile buffered saline. Animals were then injected with 0.1 ml (^˜4 ml/kg) of the 0.8 mg/ml antigen via the tail vein. The total dose based on a 20 g mouse would be 4 mg/kg. Mice were subsequently administered 200 μg HEL on days 7, 14, and 21. Whole blood was collected into Microvette EDTA capillary collection tubes (Sarstedt Inc) and then further processed following the manufacturer's instructions for serum collection. Samples were stored at −80 C until analysis was performed.
ADA assays were performed on 96-well assay plates (Nunc Plates, Black 96-Well Immuno Plates, Thermo Scientific, 437111) coated with antigen as follows. […] The excitation and emission settings for the QuantaBlu Fluorogenic Peroxide Substrates are 325 nm and 420 nm and the relative florescence units were measured using a SpectraMax plate reader. […] Titers were determined by the dilution of serum that gives a 2× OD above background.
On study day −1, animals were randomized into treatment groups based on body weight. […] Serum IgG levels against HEL/HEL conjugate were measured at day 27. […]

Sequence of Human TNFα (P01375 77-233 limits assumed): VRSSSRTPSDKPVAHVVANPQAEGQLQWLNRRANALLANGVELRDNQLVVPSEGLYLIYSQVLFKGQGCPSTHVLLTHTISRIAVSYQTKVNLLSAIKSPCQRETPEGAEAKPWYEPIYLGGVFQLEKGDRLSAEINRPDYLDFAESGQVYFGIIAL

Adalimumab
Kd [1]: 1.46 nM | Rmax (RU) [1]: 10.6 RU | ka [1]: 245000 M⁻¹ s⁻¹ | kd [1]: 0.000357 s⁻¹ | anti-drug antibody response (mouse serum IgG titer against adalimumab/adalimumab conjugates) ([2]; Example 14: single 4 mg/kg i.v. dose, days 14, 21, and 28, GAL and PEG linkers, listed as adalimumab hIgG1, 4 mg/kg): highly immunogenic in mice; also recorded: high mouse IgG serum titers | IgG response against adalimumab/adalimumab conjugate ([2]; Example 19: 4 mg/kg day 0, then weekly 200 μg HEL, day 28): strong IgG response

HEL: hen egg white lysozyme (Sigma, L4919-1G), standard immunogen [reference compound]
IgG response to HEL/HEL conjugate (immunogenicity) [3]: vigorous IgG responses to HEL

Siglec Ligand-HEL conjugates: hen egg white lysozyme conjugated with monovalent BPC-Neu5Gc PEG ligand-linker, LDR of 1.6
IgG response to HEL/HEL conjugate (immunogenicity) [3]: completely suppressed for immunogenicity
